Results reported in ChEMBL document CHEMBL3351314, “Neutrophil elastase inhibitors as potential anti-inflammatory therapies” (ACS Med Chem Lett, 2014).

How the values were obtained:
Neutrophil elastase [1] = target: T1, Neutrophil elastase (Homo sapiens, UniProt P08246); assay: Inhibition of human neutrophil elastase using MeOSuc-Ala-Ala-Pro-Val-AMC as substrate after 15 mins by fluorescence assay
T1 sequence (P08246 whole entry): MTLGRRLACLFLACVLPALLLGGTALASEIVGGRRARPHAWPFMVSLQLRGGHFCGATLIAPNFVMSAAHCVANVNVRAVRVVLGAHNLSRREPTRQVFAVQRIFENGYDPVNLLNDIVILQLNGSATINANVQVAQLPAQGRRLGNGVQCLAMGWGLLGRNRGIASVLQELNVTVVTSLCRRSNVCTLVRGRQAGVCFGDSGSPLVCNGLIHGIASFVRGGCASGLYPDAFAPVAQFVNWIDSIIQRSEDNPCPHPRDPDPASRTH

Neutrophil elastase [2] = target: T1, Neutrophil elastase; assay: Inhibition of neutrophil elastase in human plasma using MeOSuc-Ala-Ala-Pro-Val-AMC as substrate by fluorescence assay

| SMILES | IC50 (Neutrophil elastase [1]) [nM] | EC50 (Neutrophil elastase [2]) [nM] |
| --- | --- | --- |
| N#Cc1ccc(C2C3=C(CCC3=O)N(c3cccc(C(F)(F)F)c3)C(=O)N2CC(=O)N2CCC2)cc1 (centres undefined) | 3.7 | 4 |
| CS(=O)(=O)c1cc(C#N)ccc1C1C2=C(CCC2=O)N(c2cccc(C(F)F)c2)C(=O)N1C(=O)N1CC1 (centres undefined) | < 1 | < 1 |
